In US20210198277A1, “AMINE-SUBSTITUTED ARYL OR HETEROARYL COMPOUNDS” (Epizyme, Inc., priority 2016, published 2021):

Molecular target: T1, EHMT1 (Homo sapiens, UniProt Q9H9B1)
T1 sequence (Q9H9B1 1-1298): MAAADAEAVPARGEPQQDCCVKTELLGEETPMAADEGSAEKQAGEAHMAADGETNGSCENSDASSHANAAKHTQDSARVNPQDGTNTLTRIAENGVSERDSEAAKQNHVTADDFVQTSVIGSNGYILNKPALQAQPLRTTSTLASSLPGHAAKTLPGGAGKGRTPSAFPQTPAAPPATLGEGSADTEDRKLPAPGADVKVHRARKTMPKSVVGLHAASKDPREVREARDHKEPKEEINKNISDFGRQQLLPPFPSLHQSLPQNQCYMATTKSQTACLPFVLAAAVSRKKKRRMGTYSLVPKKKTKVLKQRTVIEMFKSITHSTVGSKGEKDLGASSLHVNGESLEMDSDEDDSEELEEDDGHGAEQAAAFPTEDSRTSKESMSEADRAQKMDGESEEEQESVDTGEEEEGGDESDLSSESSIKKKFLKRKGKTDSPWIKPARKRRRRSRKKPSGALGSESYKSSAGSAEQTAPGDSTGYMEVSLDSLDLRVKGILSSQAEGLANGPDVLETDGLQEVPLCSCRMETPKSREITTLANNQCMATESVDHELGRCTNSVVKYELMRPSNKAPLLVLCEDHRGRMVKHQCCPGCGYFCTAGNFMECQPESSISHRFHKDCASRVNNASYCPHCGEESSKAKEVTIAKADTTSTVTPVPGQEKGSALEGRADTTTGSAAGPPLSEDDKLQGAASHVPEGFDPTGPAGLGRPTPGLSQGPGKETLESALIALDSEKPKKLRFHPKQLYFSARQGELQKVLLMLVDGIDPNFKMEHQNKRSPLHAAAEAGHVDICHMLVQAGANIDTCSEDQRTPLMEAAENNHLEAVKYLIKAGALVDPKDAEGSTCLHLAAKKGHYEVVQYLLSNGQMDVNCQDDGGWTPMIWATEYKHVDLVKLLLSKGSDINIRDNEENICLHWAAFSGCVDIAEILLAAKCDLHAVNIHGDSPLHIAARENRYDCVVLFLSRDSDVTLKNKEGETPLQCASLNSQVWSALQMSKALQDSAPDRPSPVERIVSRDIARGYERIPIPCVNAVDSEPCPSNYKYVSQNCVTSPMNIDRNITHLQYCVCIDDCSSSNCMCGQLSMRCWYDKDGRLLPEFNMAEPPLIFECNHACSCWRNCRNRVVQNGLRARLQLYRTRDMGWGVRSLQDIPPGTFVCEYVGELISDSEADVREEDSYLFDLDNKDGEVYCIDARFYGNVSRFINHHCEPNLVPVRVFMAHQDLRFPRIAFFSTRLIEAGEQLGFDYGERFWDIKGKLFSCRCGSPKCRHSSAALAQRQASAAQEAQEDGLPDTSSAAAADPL
Experiment: EHMT1 enzyme assay on peptide substrate (EHMT1 PEP)
Type: biochemical
Settings: EHMT1 PEP (IC50 μM), Table II

IC50 [µM]	SMILES
< 0.1	CNc1cc(C)nc(Nc2ccc(OC)c(OCCCN3CCCC3)c2)n1 [Compound 205, N^2-(4-methoxy-3-(3-(pyrrolidin-1-yl)propoxy)phenyl)-N^4,6-dimethylpyrimidine-2,4-diamine]

Same assay, conditions: Table II; read-out: EHMT1 PEP (IC50 μM)

IC50 [µM]	SMILES
0.1 to 1	COc1ccc(Nc2nccc(NCC3CCNCC3)n2)cc1OCCCN1CCOCC1 [Compound 16, N^2-(4-methoxy-3-(3-morpholinopropoxy)phenyl)-N^4-(piperidin-4-ylmethyl)pyrimidine-2,4-diamine]
0.1 to 1	COc1ccc(Nc2nccc(NCC3CCNCC3)n2)cc1CCNCC1CCCC1 [Compound 17, N^2-(3-(2-((cyclopentylmethyl)amino)ethyl)-4-methoxyphenyl)-N^4-(piperidin-4-ylmethyl)pyrimidine-2,4-diamine]
0.1 to 1	COc1ccc(Nc2nccc(NCC3CCN(C(C)=O)CC3)n2)cc1OCC1CCN(C)C1 (stereo not drawn) [Compound 18, 1-(4-(((2-((4-methoxy-3-((1-methylpyrrolidin-3-yl)methoxy)phenyl)amino)pyrimidin-4-yl)amino)methyl)piperidin-1-yl)ethan-1-one]
< 0.1	COc1ccc(Nc2nc(C)cc(NCC3CCN(C(C)=O)CC3)n2)cc1OCCCN1CCCC1 [Compound 19, 1-(4-(((2-((4-methoxy-3-(3-(pyrrolidin-1-yl)propoxy)phenyl)amino)-6-methylpyrimidin-4-yl)amino)methyl)piperidin-1-yl)ethan-1-one]
0.1 to 1	COc1ccc(Nc2nccc(NC(C)C)n2)cc1OCCCN1CCCC1 [Compound 20]
0.1 to 1	COc1ccc(Nc2nccc(NCc3ccccc3)n2)cc1OCCCN1CCCC1 [Compound 21]
< 0.1	COCCCNc1ccnc(Nc2ccc(OC)c(OCCCN3CCCC3)c2)n1 [Compound 22]
0.1 to 1	COc1ccc(Nc2nccc(NCc3ccccn3)n2)cc1OCCCN1CCCC1 [Compound 23]
< 0.1	COc1ccc(Nc2nccc(NCc3ccncc3)n2)cc1OCCCN1CCCC1 [Compound 24]
< 0.1	COc1ccc(Nc2nccc(NCc3cccnc3)n2)cc1OCCCN1CCCC1 [Compound 25]
0.1 to 1	COc1cccc(CNc2ccnc(Nc3ccc(OC)c(OCCCN4CCCC4)c3)n2)c1 [Compound 26]
0.1 to 1	COCCNc1ccnc(Nc2ccc(OC)c(OCCCN3CCCC3)c2)n1 [Compound 27]
< 0.1	COc1ccc(CNc2ccnc(Nc3ccc(OC)c(OCCCN4CCCC4)c3)n2)cc1 [Compound 28]
< 0.1	COc1ccc(Nc2nccc(NCC3CCN(C(C)C)CC3)n2)cc1OCCCN1CCCC1 [Compound 29]
0.1 to 1	COc1ccc(Nc2nccc(NCc3cnn(C)c3)n2)cc1OCCCN1CCCC1 [Compound 30]
0.1 to 1	COc1ccc(Nc2nccc(NCc3nc4ccccc4[nH]3)n2)cc1OCCCN1CCCC1 [Compound 31]
< 0.1	COc1ccc(Nc2nccc(NCC3CCN(C)CC3)n2)cc1OCCCN1CCCC1 [Compound 32]
0.1 to 1	COc1ccc(Nc2nccc(NCC3CCN(c4ccccc4)CC3)n2)cc1OCCCN1CCCC1 [Compound 33]
0.1 to 1	COc1ccc(Nc2nccc(NCC3CCCC3)n2)cc1OCCCN1CCCC1 [Compound 34]
0.1 to 1	COc1ccc(Nc2cccc(NC3CCC3)n2)cc1OCCCN1CCCC1 [Compound 35]
0.1 to 1	COc1ccccc1CNc1ccnc(Nc2ccc(OC)c(OCCCN3CCCC3)c2)n1 [Compound 36]
0.1 to 1	COc1ccc(Nc2nccc(NCCc3cccnc3)n2)cc1OCCCN1CCCC1 [Compound 37]
0.1 to 1	COc1ccc(Nc2nccc(NCCNC(C)=O)n2)cc1OCCCN1CCCC1 [Compound 38]
< 0.1	COc1ccc(Nc2nccc(NCCc3ccncc3)n2)cc1OCCCN1CCCC1 [Compound 39]
0.1 to 1	COc1ccc(Nc2nccc(NCCOc3ccccc3)n2)cc1OCCCN1CCCC1 [Compound 40]
0.1 to 1	CNC(=O)CNc1ccnc(Nc2ccc(OC)c(OCCCN3CCCC3)c2)n1 [Compound 41]
0.1 to 1	COc1ccc(Nc2nccc(NCC(C)(C)O)n2)cc1OCCCN1CCCC1 [Compound 42]

IC50 [µM]	SMILES
0.1 to 1	COc1ccc(Nc2nccc(NCCS(=O)(=O)N(C)C)n2)cc1OCCCN1CCCC1 [Compound 43]
0.1 to 1	COc1ccc(Nc2nccc(NCCCN(C)C(C)=O)n2)cc1OCCCN1CCCC1 [Compound 44]
0.1 to 1	COc1ccc(Nc2nccc(NCC3(O)CCCCC3)n2)cc1OCCCN1CCCC1 [Compound 45]
0.1 to 1	COc1ccc(Nc2nccc(NCc3cc[nH]n3)n2)cc1OCCCN1CCCC1 [Compound 46]
< 0.1	COc1ccc(Nc2nccc(NCC3CCN(C(C)=O)CC3)n2)cc1OCCCN1CCCC1 [Compound 47, 1-(4-(((2-((4-methoxy-3-(3-(pyrrolidin-1-yl)propoxy)phenyl)amino)pyrimidin-4-yl)amino)methyl)piperidin-1-yl)ethan-1-one]
0.1 to 1	COc1ccc(Nc2nccc(NCC3CCN(C(C)=O)CC3)n2)cc1COCCN1CCCC1 [Compound 48]
0.1 to 1	COc1ccc(Nc2nccc(NCC3(O)CCOCC3)n2)cc1OCCCN1CCCC1 [Compound 49]
0.1 to 1	COc1ccc(Nc2nccc(NC3CCCCC3)n2)cc1OCCCN1CCCC1 [Compound 50]
0.1 to 1	CNc1cc(Nc2ccc(OC)c(OCCCN3CCCC3)c2)ccn1 [Compound 206]
1 to 10	CNc1ccnc(Nc2cccc(OCCCN3CCCC3)c2)n1 [Compound 207, N^4-methyl-N^2-(3-(3-(pyrrolidin-1-yl)propoxy)phenyl)pyrimidine-2,4-diamine]
0.1 to 1	CNc1nc(C)cc(Nc2ccc(OC)c(OCCCN3CCCC3)c2)n1 [Compound 208]
0.1 to 1	CNc1ccnc(Nc2ccc(OC)c(OCCCN3CCCC3)c2)c1 [Compound 209, N^2-(4-methoxy-3-(3-(pyrrolidin-1-yl)propoxy)phenyl)-N^4-methylpyridine-2,4-diamine]
1 to 10	CNc1ccnc(Nc2ccc(OC)c(OCCCN3CCOCC3)c2)n1 [Compound 210]
> 10	COc1ccc(Nc2nccc(-n3nc(C)cc3C)n2)cc1OCCCN1CCCC1 [Compound 214]
> 10	CNCc1cnc(Nc2ccc(OC)c(OCCCN3CCCC3)c2)nc1 [Compound 215]
0.1 to 1	COc1ccc(Nc2ccnc(NCC3CCN(C(C)=O)CC3)n2)cc1OCCCN1CCCC1 [Compound 216]
> 10	COc1ccc(Nc2ccc3cnn(C)c3c2)cc1OCCCN1CCCC1 [Compound 217]
> 10	COc1ccc(Nc2ccc3ncn(C)c3n2)cc1OCCCN1CCCC1 [Compound 218]
> 10	COc1ccc(Nc2ncc3ncn(C)c3n2)cc1OCCCN1CCCC1 [Compound 219]
> 10	COc1ccc(Nc2cccc3ncnn23)cc1OCCCN1CCCC1 [Compound 220]
> 10	COc1ccc(Nc2ccc3nn(C)cc3c2)cc1OCCCN1CCCC1 [Compound 221]
> 10	COc1ccc(Nc2cccc3cn(C)nc23)cc1OCCCN1CCCC1 [Compound 222]
1 to 10	COc1ccc(Nc2ccc3ncc(C)n3n2)cc1OCCCN1CCCC1 [Compound 223]
> 10	COc1ccc(Nc2nccc(-c3cnn(C)c3)n2)cc1OCCCN1CCCC1 [Compound 224]
1 to 10	COc1ccc(Nc2nccc(Nc3cccc(F)c3)n2)cc1OCCCN1CCCC1 [Compound 225]
1 to 10	COc1ccc(Nc2nccc(NCC3CCOCC3)n2)cc1NCCCN1CCCC1 [Compound 226]
